The source made the active and inactive calls.
Columns and labels:
HeLa = assay: viability loss in HeLa cells – cell-based, ATP luminescence, cherry-pick samples, cytotoxicity control, dose response (AID 687004); format: functional; conditions: Homo sapiens
HEK293 = assay: viability loss in HEK293T cells – cell-based, ATP luminescence, cherry-pick samples, cytotoxicity control, dose response (AID 687005); format: functional; conditions: Homo sapiens;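 note: cells exposed to compound for 48 hours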
[1] = HEK293 Cytotoxicity Assay Measured in Cell-Based System Using Plate Reader - 7071-01_Inhibitor_Dose_CherryPick_Activity_Set2.; format: functional
[2] = growth inhibition of yeast DHODH-expressing 3D7 parasites – SYBR Green, dry powder samples, dose response (AID 1159570); format: functional, cell-based;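 note: parasite growth measured after 72 hours of compound exposure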
[3] = toxicity to human HepG2 hepatoma cells – cell-based, plate reader, dry powder samples, cytotoxicity control, dose response (AID 1159569); format: functional;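 note: inhibitor potency with signal falling toward the positive control level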
[4] = P. falciparum Dd2 growth inhibitors, dose response, SYBR Green, cherry-picked samples (AID 1159567); format: functional, cell-based
[5] = Dd2 malaria parasite growth inhibition potency – SYBR Green, dry powder samples, dose response (AID 1159566); format: functional, cell-based;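 note: potency for growth inhibition with lower SYBR green DNA signal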
[6] = toxicity to human hepatoma HepG2 cells – cell-based, cherry-picked samples, cytotoxicity control, dose response (AID 1159577); format: functional
[7] = growth inhibition of PfATP4-mutant resistant parasites – NITD609-resistant line, SYBR Green, dry powder, dose response (AID 1159571); format: functional, cell-based;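 note: parasites synchronized at ring stage by sorbitol before testing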
CHO-K1 = assay: (§1) Counterscreen for antagonists of the orexin 1 receptor (OX1R; HCRTR1): Homogeneous time resolved fluorescence (HTRF)-based cell-based dose response assay to identify antagonists of the parental CHO-K1 cell line. [Related pubchem assays (depositor defined):AID434989, AID435008, AID463079, AID485270, AID492963, AID492964, AID492965, AID493232, AID504699, AID504701]; format: functional; conditions: Cricetulus griseus
[8] = as §1, with “Fluorescence-based” for “Homogeneous time resolved fluorescence (HTRF)-based”, “cell-based high throughput” for “cell-based”, “CHO” for “CHO-K1”; format: functional
[9] = target: T1, Orexin/Hypocretin receptor type 1 (Homo sapiens, UniProt O43613); assay: Homogeneous Time Resolved Fluorescence (HTRF)-based cell-based high throughput dose response assay for antagonists of the orexin 1 receptor (OX1R; HCRTR1). [Related pubchem assays (depositor defined):AID434989, AID435008, AID463079, AID485270, AID492963, AID492964, AID492965, AID493232, AID504717, AID504718]; format: functional
T1 sequence (O43613 whole entry): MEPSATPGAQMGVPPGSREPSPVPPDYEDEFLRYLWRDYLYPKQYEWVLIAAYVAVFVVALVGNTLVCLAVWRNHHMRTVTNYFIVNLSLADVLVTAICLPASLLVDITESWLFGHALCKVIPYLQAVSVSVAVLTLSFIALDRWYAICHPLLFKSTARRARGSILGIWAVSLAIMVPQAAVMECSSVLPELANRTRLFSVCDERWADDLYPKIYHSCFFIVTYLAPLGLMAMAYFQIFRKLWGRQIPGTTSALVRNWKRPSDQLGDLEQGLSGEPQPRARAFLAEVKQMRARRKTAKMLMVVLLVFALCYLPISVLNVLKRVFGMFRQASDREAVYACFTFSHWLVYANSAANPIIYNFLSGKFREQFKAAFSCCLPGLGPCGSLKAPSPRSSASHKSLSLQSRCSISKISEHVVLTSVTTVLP

[10] = target: T1, Orexin/Hypocretin receptor type 1; assay: Fluorescence-based cell-based high throughput dose response assay for antagonists of the orexin 1 receptor (OX1R; HCRTR1). [Related pubchem assays (depositor defined):AID434989, AID435008, AID463079, AID485270, AID492963, AID492964, AID492965, AID493232, AID504717, AID504718]; format: functional
Orexin receptor type 2 [11] = target: T2, Orexin receptor type 2 (Homo sapiens, UniProt O43614); assay: Counterscreen assay for antagonists of the orexin 1 receptor (OX1R; HCRTR1): Fluorescence-based cell-based dose response assay for antagonists of the orexin 2 receptor (OX2R; HCRTR2), run by assay provider.; format: functional
T2 sequence (O43614 whole entry): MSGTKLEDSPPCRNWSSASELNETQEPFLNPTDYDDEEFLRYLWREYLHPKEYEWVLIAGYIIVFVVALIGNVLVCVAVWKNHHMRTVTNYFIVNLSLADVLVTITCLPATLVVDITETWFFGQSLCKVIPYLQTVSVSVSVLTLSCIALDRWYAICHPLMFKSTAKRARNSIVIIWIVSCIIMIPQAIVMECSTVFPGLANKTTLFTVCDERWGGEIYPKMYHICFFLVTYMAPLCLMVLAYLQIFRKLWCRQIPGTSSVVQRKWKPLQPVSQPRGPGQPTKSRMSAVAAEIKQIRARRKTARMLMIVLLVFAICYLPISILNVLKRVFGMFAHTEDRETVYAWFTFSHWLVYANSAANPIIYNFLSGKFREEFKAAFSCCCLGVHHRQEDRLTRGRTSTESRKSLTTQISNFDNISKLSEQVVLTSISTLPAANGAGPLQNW

Orexin receptor type 2 [12] = target: T2, Orexin receptor type 2; assay: Counterscreen assay for antagonists of the orexin 1 receptor (OX1R; HCRTR1): Homogeneous Time Resolved Fluorescence (HTRF)-based cell-based dose response assay for antagonists of the orexin 2 receptor (OX2R; HCRTR2), run by assay provider.; format: functional
Kallikrein-7 = Kallikrein-7 (Homo sapiens, UniProt P49862); assay: Fluorescence Intensity-based biochemical primary high throughput dose response assay to identify activators of kallikrein-7 (K7) zymogen.
[13] = CTGF mRNA reduction in DLD1 cells – cell-based, DLD1 colon cancer, RT-qPCR, cherry-pick, dose response (AID 1053122); format: functional; conditions: Cancer cell lines
cells [14] = assay: cells
[15] = reduction of Shn3 3'UTR-driven luciferase in osteoblasts – cell-based, Clone20 osteoblasts, firefly luciferase, cherry-picked, dose response (AID 624132); format: functional;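 note: firefly luciferase luminescence from reporter carrying the Shn3 3'UTR in osteoblasts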
[16] = non-specific 3'UTR reporter inhibition in Clone20-Shn3RL – cell-based, Renilla luciferase, cherry-picked, counter-screen for Shn3 inhibitor project, dose response (AID 624133); format: functional
[17] = Shn3 3'UTR reporter signal decrease – cell-based, Clone20 osteoblasts, firefly luciferase, cherry-pick, set 2, Schnurri-3 inhibitor project, dose response (AID 720490); format: functional;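 note: actives lower the luminescence signal as inhibitors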
[18] = EF1alpha-driven Renilla reporter with control 3'UTR suppression – Clone20-Shn3RL cells, dual-Glo, cherry-pick, set 2, counter-screen for Shn3 3'UTR targeting project, dose response (AID 720724); format: functional, cell-based; conditions: Dual-Go Shn3RL
Major prion protein = Major prion protein (Homo sapiens, UniProt P04156); format: functional, cell-based
cells [19] = assay: cells; remark: listed apart in the source
[20] = MITF Orthogonal Assay: SK-MEL-5 CTG Assay Measured in Cell-Based System Using Plate Reader - 2084-02_Inhibitor_Dose_DryPowder_Activity_Set7.; format: functional
[21] = MITF: Counter assay: A375 proliferation Measured in Cell-Based System Using Plate Reader - 2084-03_Inhibitor_Dose_DryPowder_Activity_Set8.; format: functional; conditions: A-375
[22] = inhibitors of TRPM1-promoter reporter in SK-MEL-5 – cell-based, luciferase, dry powder, set 8, MITF inhibitor project, dose response (AID 624430); format: functional

Compound: C[C@@H]1CN([C@@H](C)CO)C(=O)c2c(c3ccccc3n2C)-c2ccccc2CO[C@@H]1CN(C)S(=O)(=O)c1ccc(Cl)cc1
- AC50 (HeLa): 49.1 µM (active)
- AC50 (HEK293): 25.3 µM (active)
- AC50 [1]: 25.3 µM (active)
- AC50 [2]: 3.95 µM (active)
- AC50 [3]: 39.2 µM (active)
- AC50 [4]: 2.33 µM (active)
- AC50 [5]: 1.97 µM (active)
- AC50 [6]: > 39 µM (inactive)
- AC50 [7]: 3.4 µM (active)

Compound: O=C(OC1CCOC1=O)c1ccc(-c2nc3ccccc3s2)s1 (configuration not stated)
- IC50 (CHO-K1): 29.9 µM (inactive)
- IC50 [8]: > 49.8 µM (inactive)
- IC50 [9]: 1.98 µM (active)
- IC50 [10]: 9.49 µM (active)
- IC50 (Orexin receptor type 2 [11]): > 88.8 µM (inactive)
- IC50 (Orexin receptor type 2 [12]): 11.4 µM (inactive)
- EC50 (Kallikrein-7): > 69.5 µM (inactive)

Compound: CCc1nc(N2[C@H](CO)[C@@H](c3ccccc3-c3ccc(F)cc3)[C@@H]2C#N)sc1C
- AC50 [13]: > 26 µM (inactive)

Compound: CC(C)OCCCn1c(=N)c(C(N)=S)cc2c(=O)n3ccccc3nc21
- AC50 (cells [14]): 610 nM (active)

Compound: COC(=O)C1=C(c2ccc(OCc3ccccc3)cc2)C[C@@H]2CC[C@H]1N2C(=O)NCCCCc1ccccc1
- AC50 [15]: 2.8 µM (active)
- AC50 [16]: 25.6 µM (active)
- AC50 [17]: 10.3 µM (active)
- AC50 [18]: 35.9 µM (active)

Compound: O=C(O)c1ccccc1C(=O)c1cccc2c(Br)cccc12
- IC50 (Major prion protein): 1.57 µM (active)
- IC50 (cells [19]): > 138 µM (inactive)

Compound: O=C1C(Nc2ccc(F)cc2)=C(N2CCCC2)C(=O)c2ccccc21
- AC50 [20]: 625 nM (active)
- AC50 [21]: 11.9 µM (active)
- AC50 [22]: 583 nM (active)

From ChEMBL document CHEMBL1201862, “PubChem BioAssay data set” (2004)
